Data: ChEMBL document CHEMBL1136060, “A new class of type I protein geranylgeranyltransferase (GGTase I) inhibitor” (Bioorg Med Chem Lett, 2002)
Several values for one entry are separate records, joined by “and”; a condition that tells them apart may be missing. Equal entries are not always repeated.

What was measured:
[1] = biological target: Geranylgeranyl transferase type I (Candida albicans); experiment: Inhibition of Candida geranylgeranyl transferase I […]
[2] = tested on: Geranylgeranyl transferase type I (Candida albicans); experiment: Tested for the inhibition of Candida GGTase I in Candida albicans at concentration of 3 uM
[3] = biological target: Geranylgeranyl transferase type I (Candida albicans); experiment: Tested for the inhibition of Candida GGTase I in Candida albicans
[4] = biological target: T1, Geranylgeranyl transferase type I (Homo sapiens, UniProt P49354+P53609); experiment: Tested for the selectivity against human geranylgeranyl transferase I; assay type: protein-complex assay
Candida albicans = experiment: Antifungal activity against Candida albicans; assay type: functional
[5] = biological target: Protein farnesyltransferase (Homo sapiens, UniProt P49354+P49356); experiment: Inhibition of human farnesyl transferase; assay type: protein-complex assay
[6] = biological target: Geranylgeranyl transferase type I (Candida albicans); experiment: Inhibition of Candida geranylgeranyl transferase I
[7] = biological target: T1, Geranylgeranyl transferase type I; experiment: Inhibition of human geranylgeranyl transferase I; assay type: protein-complex assay

Structure (SMILES)	inhibition [2]	also measured
O=C(OCCCS)c1csc(C2COc3ccccc3O2)n1 (configuration not stated)		IC50 [1]: 0.24 µM
O=C(O)CCC(NC(=O)C1Cc2ccccc2C1)C(=O)OCCCS (configuration not stated)	< 10%	
O=C(N[C@H](Cc1cccc2ccccc12)C(=O)NCCc1cnc[nH]1)C1Cc2ccccc2C1		IC50 [3]: 0.35 µM
O=C(N[C@H](Cc1cccc2ccccc12)C(=O)OCCCS)C1Cc2ccccc2C1		IC50 [3]: 0.0073 µM
NC(=O)[C@@H](Cc1c[nH]cn1)NC(=O)[C@@H](Cc1cccc2ccccc12)NC(=O)C1Cc2ccccc2C1	48%	
O=C(OCCCS)C(Cc1c[nH]c2ccccc12)NC(=O)C1COc2ccccc2O1 (configuration not stated)	72%	
O=C(CNC(=O)C1Cc2ccccc2C1)OCCCS	< 10%	
O=C(NCCCS)c1csc(C2COc3ccccc3O2)n1 (configuration not stated)		IC50 [3]: 0.78 µM
O=C(OCCCS)C(Cc1ccc2ccccc2c1)NC(=O)C1COc2ccccc2O1 (configuration not stated)	25%	
NC(=O)[C@@H](Cc1c[nH]cn1)NC(=O)[C@@H](Cc1cccc2ccccc12)NC(=O)C1c2ccccc2Oc2ccccc21	97%	
O=C(CNC(=O)C1COc2ccccc2O1)OCCCS (configuration not stated)	< 10%	
O=C(NC(Cc1c[nH]c2ccccc12)C(=O)OCCCS)C1Cc2ccccc2C1 (configuration not stated)	72%	
O=C(OCC(O)CS)c1csc(C2COc3ccccc3O2)n1 (configuration not stated)		IC50 [3]: 0.031 µM
O=C(N[C@H](Cc1ccc(Cl)c(Cl)c1)C(=O)NCCc1c[nH]cn1)C1c2ccccc2Oc2ccccc21		Selectivity [4]: > 1000; IC50 [3]: 0.01 µM
CC(O)C(NC(=O)C1Cc2ccccc2C1)C(=O)OCCCS (configuration not stated)	< 10%	
NC(=O)[C@@H](Cc1c[nH]cn1)NC(=O)[C@@H](Cc1cccc2ccccc12)NC(=O)C1c2ccccc2-c2ccccc21	71% and 96%	
O=C(OCCCS)C(CC1CCCCC1)NC(=O)C1COc2ccccc2O1 (configuration not stated)	< 10%	
O=C(NC(C(=O)OCCCS)c1cccc2ccccc12)C1Cc2ccccc2C1 (configuration not stated)	90%	
O=C(OCCS)c1csc(C2COc3ccccc3O2)n1 (configuration not stated)		IC50 [1]: 1.3 µM
O=C(OC(CS)C(O)CS)c1csc(C2COc3ccccc3O2)n1 (configuration not stated)		IC50 [1]: 0.017 µM; MIC (Candida albicans): > 120 µg/mL; IC50 [5]: > 1000 µM; IC50 [6]: 0.017 µM; IC50 [7]: 40 µM
O=C(NC(Cc1ccc2ccccc2c1)C(=O)OCCCS)C1Cc2ccccc2C1 (configuration not stated)	36%	
CC(O)C(NC(=O)C1COc2ccccc2O1)C(=O)OCCCS (configuration not stated)	< 10%	
O=C(NC(C(=O)OCCCS)c1cccc2ccccc12)C1COc2ccccc2O1 (configuration not stated)	89%	
O=C(NC(Cc1ccccc1)C(=O)OCCCS)C1Cc2ccccc2C1 (configuration not stated)	63%	
O=C(NC(CC1CCCCC1)C(=O)OCCCS)C1Cc2ccccc2C1 (configuration not stated)	< 10%	
O=C(O)CCC(NC(=O)C1COc2ccccc2O1)C(=O)OCCCS (configuration not stated)	< 10%	
O=C(OCCCS)C(Cc1ccccc1)NC(=O)C1COc2ccccc2O1 (configuration not stated)	55%	
